One may read the IC50 as the concentration that gives 50% inhibition. Lower therefore signals inhibition by little substance.

8 molecules from ChEMBL document CHEMBL1124036 (J Med Chem, 1988) can be followed below.

The test system of one experiment is HEp-2. Kind of experiment: Concentration required to produce 50% reduction in cloning of H.Ep.No.2 cells by 50%. It is filed as functional, cell-based. Conditions: Homo sapiens.
In another experiment the test system is L1210. Nature of the experiment: Concentration required to produce 50% reduction in the rate of proliferation of L1210 cells. It is filed as functional, cell-based. Conditions: Mus musculus.

As to `Nc1nc(F)nc2c1ncn2C1O[C@H](CO)[C@H](O)[C@H]1Cl` (stereo partly specified), the IC50 is 100 µM with HEp-2 and 60 µM in the experiment on L1210.

As for `Nc1nc(Cl)nc2c1ncn2C1O[C@H](CO)[C@H](O)[C@H]1N` (stereo partly specified), the IC50 is 80 µM with HEp-2 and more than 120 µM in the experiment with L1210.

On to `[N-]=[N+]=N[C@H]1C(n2cnc3c(N)nc(F)nc32)O[C@H](CO)[C@@H]1O` (stereo partly specified), for which the half-inhibitory concentration (IC50) worked out at 29 µM in the experiment with HEp-2 and 100 µM with L1210.

With `[N-]=[N+]=N[C@H]1C(n2cnc3c(N)nc(Cl)nc32)O[C@H](CO)[C@@H]1O` (stereo partly specified), the IC50 in the experiment with HEp-2 and in the experiment on L1210 was more than 120 µM each time.

As for `Nc1nc(Cl)nc2c1ncn2C1O[C@H](CO)[C@H](O)[C@H]1Cl` (stereo partly specified), the IC50 with HEp-2 and with L1210 was more than 120 µM throughout.

Take `Nc1nc(Cl)nc2c1ncn2C1O[C@H](CO)[C@H](O)[C@H]1I` (stereo partly specified): the IC50 in the experiment with HEp-2 and in the experiment with L1210 was more than 100 µM throughout.

Regarding `Nc1nc(Cl)nc2c1ncn2C1O[C@H](CO)[C@H](O)[C@H]1Br` (stereo partly specified), the IC50 with HEp-2 and in the experiment with L1210 was more than 110 µM each time.

In the case of `Nc1nc(F)nc2c1ncn2C1O[C@H](CO)[C@H](O)[C@H]1N` (stereo partly specified), the IC50 in the experiment with HEp-2 came out at 12 µM; in the experiment with L1210, 120 µM.
